Assay results as given in patent publication US20120295907A1, “INSECTICIDAL COMPOUNDS” (SYNGENTA CROP PROTECTION, LLC, priority 2009, published 2012).
Like-named read-outs stand apart in the source and are kept apart here.

What was measured:
Type in all cases: in vivo
[1] = tested on: Heliothis virescens; test: Heliothis virescens (Tobacco Budworm) egg test on artificial diet; settings: 96 h, 200 ppm (concentration in well 18 ppm), eggs 0-24 h old on artificial diet, 4 days, egg mortality, larval mortality, growth regulation
[2] = tested on: Plutella xylostella; test: Plutella xylostella (Diamond Back Moth) artificial diet MTP test; settings: 144 h, 200 ppm (concentration in well 18 ppm), L2 larvae, 6 days, larval mortality, growth regulation
[3] = tested on: Thrips tabaci; test: Thrips tabaci (Onion Thrips) sunflower leaf disc spray test; settings: foliar, 168 h, 200 ppm spray on sunflower leaf discs, population of mixed ages, 7 days, mortality
[4] = tested on: Diabrotica balteata; test: Diabrotica balteata (Corn Root Worm) artificial diet MTP test; settings: 120 h, 200 ppm (concentration in well 18 ppm), L2 larvae, 5 days, larval mortality, growth regulation
[5] = tested on: Spodoptera littoralis; test: Spodoptera littoralis (Egyptian Cotton Leafworm) cotton leaf disc spray test; settings: foliar, 72 h, 200 ppm spray on cotton leaf discs, L1 larvae, mortality, feeding behavior, growth regulation 3 DAT
[6] = tested on: Myzus persicae; test: Myzus persicae (Green Peach Aphid) sunflower leaf disc spray test; settings: foliar, 144 h, 200 ppm spray on sunflower leaf discs, aphid population of mixed ages, 6 DAT, mortality
[7] = tested on: Tetranychus urticae; test: Tetranychus urticae (Two-Spotted Spider Mite) bean leaf disc spray test; settings: foliar, 192 h, read-out: control of Tetranychus urticae
[8] = 200 ppm spray on bean leaf discs, mite populations of mixed ages, 8 days, egg, larval and adult mortality

Measured: pest or weed control at 200 ppm

COc1c(NC(=O)c2ccc(OC(F)(F)F)cc2)cccc1C(=O)Nc1c(Cl)cc(C(F)(C(F)(F)F)C(F)(F)F)cc1Cl [E11]
≥ 80%: [1] | [2] | [3] | [4] | [5] | [6]

COc1c(NC(=O)c2ccccc2F)cccc1C(=O)Nc1c(Cl)cc(C(F)(C(F)(F)F)C(F)(F)F)cc1Cl [E1]
≥ 80%: [1] | [3] | [4] | [5] | [6]

COc1c(NC(=O)c2cccnc2)cccc1C(=O)Nc1c(Cl)cc(C(F)(C(F)(F)F)C(F)(F)C(F)(F)F)cc1Br (stereo not shown) [B37]
≥ 80%: [2] | [3] | [4] | [5] | [6]

COCc1cc(C(F)(C(F)(F)F)C(F)(F)C(F)(F)F)cc(Br)c1NC(=O)c1cccc(NC(=O)c2c(F)cc(F)cc2F)c1OC (stereo not shown) [I2]
≥ 80%: [1] | [2] | [3] | [4] | [6]

COCc1cc(C(F)(C(F)(F)F)C(F)(F)C(F)(F)F)cc(Br)c1NC(=O)c1cccc(NC(=O)c2ccc(F)cc2Cl)c1OC (stereo not shown) [I25]
≥ 80%: [1] | [2] | [3] | [4] | [6]

COc1c(NC(=O)c2ccccc2C)cccc1C(=O)Nc1c(Cl)cc(C(F)(C(F)(F)F)C(F)(F)F)cc1Cl [E2]
≥ 80%: [1] | [3] | [4] | [5] | [6]

COc1c(NC(=O)c2ccccc2)cccc1C(=O)Nc1c(Cl)cc(C(F)(C(F)(F)F)C(F)(F)C(F)(F)F)cc1Cl (stereo not shown) [C18]
≥ 80%: [1] | [2] | [3] | [5] | [6]

COc1c(NC(=O)c2ccc([N+](=O)[O-])c(F)c2)cccc1C(=O)Nc1c(Cl)cc(C(F)(C(F)(F)F)C(F)(F)C(F)(F)F)cc1Br (stereo not shown) [B192]
≥ 80%: [7]; [8] | [1] | [2] | [3] | [4] | [5]

COc1c(NC(=O)c2ccc(Cl)c(OC)c2Cl)cccc1C(=O)Nc1c(Cl)cc(C(F)(C(F)(F)F)C(F)(F)C(F)(F)F)cc1Br (stereo not shown) [B109]
≥ 80%: [7]; [8] | [1] | [2] | [3] | [4] | [5]

COc1c(NC(=O)c2ccc(F)cc2C)cccc1C(=O)Nc1c(Cl)cc(C(F)(C(F)(F)F)C(F)(F)C(F)(F)F)cc1Cl (stereo not shown) [C9]
≥ 80%: [7]; [8] | [1] | [2] | [3] | [4] | [5]

COc1c(NC(=O)c2ccc([N+](=O)[O-])cc2[N+](=O)[O-])cccc1C(=O)Nc1c(Cl)cc(C(F)(C(F)(F)F)C(F)(F)C(F)(F)F)cc1Br (stereo not shown) [B180]
≥ 80%: [7] | [1] | [2] | [3] | [4] | [5]

COc1c(NC(=O)c2ccc([N+](=O)[O-])cc2Cl)cccc1C(=O)Nc1c(Cl)cc(C(F)(C(F)(F)F)C(F)(F)C(F)(F)F)cc1Cl (stereo not shown) [C11]
≥ 80%: [7]; [8] | [1] | [2] | [3] | [4] | [5]

COc1c(NC(=O)c2ccsc2)cccc1C(=O)Nc1c(Cl)cc(C(F)(C(F)(F)F)C(F)(F)C(F)(F)F)cc1Br (stereo not shown) [B124]
≥ 80%: [1] | [2] | [3] | [5] | [6]

COc1c(NC(=O)c2ccc(Cl)s2)cccc1C(=O)Nc1c(Cl)cc(C(F)(C(F)(F)F)C(F)(F)C(F)(F)F)cc1Br (stereo not shown) [B67]
≥ 80%: [7]; [8] | [1] | [2] | [3] | [4] | [5]

CCc1cc(C(F)(C(F)(F)F)C(F)(F)C(F)(F)F)cc(C)c1NC(=O)c1cccc(NC(=O)c2cccnc2F)c1OC (stereo not shown) [A7]
≥ 80%: [7]; [8] | [1] | [2] | [3] | [4] | [5]

COc1c(NC(=O)c2cccnc2C(F)(F)F)cccc1C(=O)Nc1c(Cl)cc(C(F)(C(F)(F)F)C(F)(F)C(F)(F)F)cc1Br (stereo not shown) [B81]
≥ 80%: [7]; [8] | [1] | [2] | [3] | [4] | [5]

COCc1cc(C(F)(C(F)(F)F)C(F)(F)C(F)(F)F)cc(Cl)c1NC(=O)c1cccc(NC(=O)c2ccc(C#N)cc2C)c1OC (stereo not shown) [H1]
≥ 80%: [1] | [2] | [6]

COc1c(NC(=O)c2ccc([N+](=O)[O-])cc2C(F)(F)F)cccc1C(=O)Nc1c(Cl)cc(C(F)(C(F)(F)F)C(F)(F)C(F)(F)F)cc1Br (stereo not shown) [B178]
≥ 80%: [7]; [8] | [1] | [2] | [3] | [4] | [5]

COCc1cc(C(F)(C(F)(F)F)C(F)(F)C(F)(F)F)cc(Cl)c1NC(=O)c1cccc(NC(=O)c2ccc(F)cc2Cl)c1OC (stereo not shown) [H25]
≥ 80%: [1] | [2] | [3] | [4] | [6]

COc1c(NC(=O)c2ccc(Br)cc2Cl)cccc1C(=O)Nc1c(Cl)cc(C(F)(C(F)(F)F)C(F)(F)C(F)(F)F)cc1Br (stereo not shown) [B135]
≥ 80%: [7]; [8] | [1] | [2] | [3] | [4] | [5]

COc1c(NC(=O)c2snnc2C)cccc1C(=O)Nc1c(Cl)cc(C(F)(C(F)(F)F)C(F)(F)C(F)(F)F)cc1Cl (stereo not shown) [C21]
≥ 80%: [7]; [8] | [1] | [2] | [3] | [4] | [5]

COc1c(NC(=O)c2ccc(F)cc2Cl)cccc1C(=O)Nc1c(Cl)cc(C(F)(C(F)(F)F)C(F)(F)F)cc1Cl [E19]
≥ 80%: [7]; [8] | [1] | [2] | [3] | [4] | [5]

COc1c(NC(=O)c2ccc([N+](=O)[O-])cc2)cccc1C(=O)Nc1c(Cl)cc(C(F)(C(F)(F)F)C(F)(F)C(F)(F)F)cc1Cl (stereo not shown) [C7]
≥ 80%: [7]; [8] | [1] | [2] | [3] | [4] | [5]

COc1c(NC(=O)c2c(Cl)cccc2[N+](=O)[O-])cccc1C(=O)Nc1c(Cl)cc(C(F)(C(F)(F)F)C(F)(F)C(F)(F)F)cc1Br (stereo not shown) [B101]
≥ 80%: [7]; [8] | [1] | [2] | [3] | [4] | [5]

COc1c(NC(=O)c2ccc(OC(F)(F)F)cc2)cccc1C(=O)Nc1c(Cl)cc(C(F)(C(F)(F)F)C(F)(F)C(F)(F)F)cc1Cl (stereo not shown) [C13]
≥ 80%: [7]; [8] | [1] | [2] | [3] | [4] | [5]

COc1c(NC(=O)c2ccc(C#N)cc2C)cccc1C(=O)Nc1c(Cl)cc(C(F)(C(F)(F)F)C(F)(F)C(F)(F)F)cc1Cl (stereo not shown) [C2, N-[2,6-dichloro-4-(1,2,2,3,3,3-hexafluoro-1-trifluoromethylpropyl)phenyl]-3-(4-cyano-2-methylbenzoylamino)-2-methoxybenzamide]
≥ 80%: [7]; [8] | [1] | [2] | [3] | [4] | [5]

COc1c(NC(=O)c2ccc(F)cc2C)cccc1C(=O)Nc1c(Cl)cc(C(F)(C(F)(F)F)C(F)(F)C(F)(F)F)cc1Br (stereo not shown) [B9]
≥ 80%: [7]; [8] | [1] | [2] | [3] | [4] | [5]
